Assay results as given in EP0181471A1, “Pyrazole derivatives, process for their preparation and medicaments containing them” (LUDWIG HEUMANN & CO GMBH, priority 1984, dated 1986).

System: Histamin-H2-Rezeptoren
Assay: Inhibition of histamine-stimulated gastric acid secretion in the conscious fistula cat
Assay type: in vivo
Settings: wache Fistelkatze; Stimulator: Histamin; i.V.
Excerpt: Weiterhin kann die H2-antagonistische Wirkung an wachen Heidennain-Pouch-Hunden nach der Methode von Black et al., "Nature" 236, 385 (1972) und an wachen Fistelkatzen gezeigt werden.

`CN=C(NC#N)NCCSCc1nc[nH]c1C` [CIMETIDIN, Cimetidin] was tested, and the ID50 was 1,4 umol/k^g.
